Assays:
Test in all cases: relative viability (nuclei count vs DMSO), 5 days (fraction); higher = more cells survive
Irinotecan + Trametinib = compound: CCc1c2c(nc3ccc(OC(=O)N4CCC(N5CCCCC5)CC4)cc13)-c1cc3c(c(=O)n1C2)COC(=O)[C@]3(O)CC [Irinotecan] + CC(=O)Nc1cccc(-n2c(=O)n(C3CC3)c(=O)c3c(Nc4ccc(I)cc4F)n(C)c(=O)c(C)c32)c1 [Trametinib] (partner 0.02 µM)
Summary of the method: (§1)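 Five library-drug doses in √10 steps were combined with a fixed anchor-drug dose, or a single drug was given alone, by pin tool to lung cancer cell lines in 1536-well plates the day after seeding. Nuclei were stained and counted after 5 days. Relative viability is the nuclei count in treated wells over that in vehicle wells, taken as the median of duplicate plates.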

Irinotecan + Olaparib = compound: CCc1c2c(nc3ccc(OC(=O)N4CCC(N5CCCCC5)CC4)cc13)-c1cc3c(c(=O)n1C2)COC(=O)[C@]3(O)CC [Irinotecan] + O=C(c1cc(Cc2n[nH]c(=O)c3ccccc23)ccc1F)N1CCN(C(=O)C2CC2)CC1 [Olaparib] (partner 8 µM)
Summary of the method: as §1

RU-SKI 43 + Alpelisib = compound: CC[C@@H](C)CNCC(=O)N1CCC2=C([C@@H]1COC3=CC=CC(=C3)C)C=CS2 [RU-SKI 43] + Cc1nc(NC(=O)N2CCC[C@H]2C(N)=O)sc1-c1ccnc(C(C)(C)C(F)(F)F)c1 [Alpelisib] (partner 2 µM)
Summary of the method: as §1

MK-8033 + Lapatinib = compound: Cn1cc(-c2cnc3ccc4ccc(CS(=O)(=O)NCc5ccccn5)cc4c(=O)c3c2)cn1 [MK-8033] + CS(=O)(=O)CCNCc1ccc(-c2ccc3ncnc(Nc4ccc(OCc5cccc(F)c5)c(Cl)c4)c3c2)o1 [Lapatinib] (partner 2 µM)
Summary of the method: as §1

NCI-H358
relative viability (Irinotecan + Trametinib; first compound 0.6325 µM): 0.106
relative viability (Irinotecan + Trametinib; first compound 2 µM): 0.131
relative viability (Irinotecan + Trametinib; first compound 6.325 µM): 0.125
relative viability (Irinotecan + Trametinib; first compound 20 µM): 0.071
relative viability (Irinotecan + Olaparib; first compound 0.6325 µM): 0.215
relative viability (Irinotecan + Olaparib; first compound 2 µM): 0.286
relative viability (Irinotecan + Olaparib; first compound 6.325 µM): 0.158
relative viability (Irinotecan + Olaparib; first compound 20 µM): 0.109
relative viability (RU-SKI 43 + Alpelisib; first compound 0.1 µM): 0.795
relative viability (RU-SKI 43 + Alpelisib; first compound 0.3162 µM): 0.894
relative viability (RU-SKI 43 + Alpelisib; first compound 1 µM): 0.781
relative viability (RU-SKI 43 + Alpelisib; first compound 3.162 µM): 0.634
relative viability (RU-SKI 43 + Alpelisib; first compound 10 µM): 0.858
relative viability (MK-8033 + Lapatinib; first compound 0.02 µM): 0.427
relative viability (MK-8033 + Lapatinib; first compound 0.06325 µM): 0.317
relative viability (MK-8033 + Lapatinib; first compound 0.2 µM): 0.44
relative viability (MK-8033 + Lapatinib; first compound 0.6325 µM): 0.42
relative viability (MK-8033 + Lapatinib; first compound 2 µM): 0.456

NCI-H460
relative viability (Irinotecan + Trametinib; first compound 0.6325 µM): 0.086
relative viability (Irinotecan + Trametinib; first compound 2 µM): 0.159
relative viability (Irinotecan + Trametinib; first compound 6.325 µM): 0.089
relative viability (Irinotecan + Trametinib; first compound 20 µM): 0.0313
relative viability (Irinotecan + Olaparib; first compound 2 µM): 0.214
relative viability (Irinotecan + Olaparib; first compound 6.325 µM): 0.0942
relative viability (Irinotecan + Olaparib; first compound 20 µM): 0.125
relative viability (RU-SKI 43 + Alpelisib; first compound 0.1 µM): 0.44
relative viability (RU-SKI 43 + Alpelisib; first compound 0.3162 µM): 0.657
relative viability (RU-SKI 43 + Alpelisib; first compound 1 µM): 0.6
relative viability (RU-SKI 43 + Alpelisib; first compound 3.162 µM): 0.5
relative viability (RU-SKI 43 + Alpelisib; first compound 10 µM): 0.36
relative viability (MK-8033 + Lapatinib; first compound 0.02 µM): 0.968
relative viability (MK-8033 + Lapatinib; first compound 0.06325 µM): 0.897
relative viability (MK-8033 + Lapatinib; first compound 0.2 µM): 0.907
relative viability (MK-8033 + Lapatinib; first compound 0.6325 µM): 1.13
relative viability (MK-8033 + Lapatinib; first compound 2 µM): 0.793

NCI-H520
relative viability (Irinotecan + Trametinib; first compound 0.6325 µM): 0.52
relative viability (Irinotecan + Trametinib; first compound 2 µM): 0.397
relative viability (Irinotecan + Trametinib; first compound 6.325 µM): 0.264
relative viability (Irinotecan + Trametinib; first compound 20 µM): 0.172
relative viability (Irinotecan + Olaparib; first compound 0.6325 µM): 0.23
relative viability (Irinotecan + Olaparib; first compound 2 µM): 0.277
relative viability (Irinotecan + Olaparib; first compound 6.325 µM): 0.309
relative viability (Irinotecan + Olaparib; first compound 20 µM): 0.145
relative viability (RU-SKI 43 + Alpelisib; first compound 0.1 µM): 0.968
relative viability (RU-SKI 43 + Alpelisib; first compound 0.3162 µM): 1.01
relative viability (RU-SKI 43 + Alpelisib; first compound 1 µM): 1.09
relative viability (RU-SKI 43 + Alpelisib; first compound 3.162 µM): 0.918
relative viability (RU-SKI 43 + Alpelisib; first compound 10 µM): 0.793
relative viability (MK-8033 + Lapatinib; first compound 0.02 µM): 0.959
relative viability (MK-8033 + Lapatinib; first compound 0.06325 µM): 0.853
relative viability (MK-8033 + Lapatinib; first compound 0.2 µM): 0.784
relative viability (MK-8033 + Lapatinib; first compound 0.6325 µM): 0.867
relative viability (MK-8033 + Lapatinib; first compound 2 µM): 0.79

NCI-H596
relative viability (Irinotecan + Trametinib; first compound 0.6325 µM): 0.86
relative viability (Irinotecan + Trametinib; first compound 2 µM): 0.731
relative viability (Irinotecan + Trametinib; first compound 6.325 µM): 0.682
relative viability (Irinotecan + Trametinib; first compound 20 µM): 0.758
relative viability (Irinotecan + Olaparib; first compound 0.6325 µM): 0.638
relative viability (Irinotecan + Olaparib; first compound 2 µM): 0.707
relative viability (Irinotecan + Olaparib; first compound 6.325 µM): 0.64
relative viability (Irinotecan + Olaparib; first compound 20 µM): 0.828
relative viability (RU-SKI 43 + Alpelisib; first compound 0.1 µM): 0.395
relative viability (RU-SKI 43 + Alpelisib; first compound 0.3162 µM): 0.481
relative viability (RU-SKI 43 + Alpelisib; first compound 1 µM): 0.508
relative viability (RU-SKI 43 + Alpelisib; first compound 3.162 µM): 0.6
relative viability (RU-SKI 43 + Alpelisib; first compound 10 µM): 0.482
relative viability (MK-8033 + Lapatinib; first compound 0.02 µM): 1.12
relative viability (MK-8033 + Lapatinib; first compound 0.06325 µM): 0.977
relative viability (MK-8033 + Lapatinib; first compound 0.2 µM): 1.05
relative viability (MK-8033 + Lapatinib; first compound 0.6325 µM): 1.02
relative viability (MK-8033 + Lapatinib; first compound 2 µM): 1.17

NCI-H647
relative viability (Irinotecan + Trametinib; first compound 0.6325 µM): 0.447
relative viability (Irinotecan + Trametinib; first compound 2 µM): 0.414
relative viability (Irinotecan + Trametinib; first compound 6.325 µM): 0.151
relative viability (Irinotecan + Trametinib; first compound 20 µM): 0.0916
relative viability (Irinotecan + Olaparib; first compound 0.6325 µM): 0.194
relative viability (Irinotecan + Olaparib; first compound 2 µM): 0.205
relative viability (Irinotecan + Olaparib; first compound 6.325 µM): 0.14
relative viability (Irinotecan + Olaparib; first compound 20 µM): 0.0986
relative viability (RU-SKI 43 + Alpelisib; first compound 0.1 µM): 1.2
relative viability (RU-SKI 43 + Alpelisib; first compound 0.3162 µM): 1.56
relative viability (RU-SKI 43 + Alpelisib; first compound 1 µM): 1.51
relative viability (RU-SKI 43 + Alpelisib; first compound 3.162 µM): 1.11
relative viability (RU-SKI 43 + Alpelisib; first compound 10 µM): 1.1
relative viability (MK-8033 + Lapatinib; first compound 0.02 µM): 0.892
relative viability (MK-8033 + Lapatinib; first compound 0.06325 µM): 1.02
relative viability (MK-8033 + Lapatinib; first compound 0.2 µM): 0.798
relative viability (MK-8033 + Lapatinib; first compound 0.6325 µM): 1.09
relative viability (MK-8033 + Lapatinib; first compound 2 µM): 1.05

NCI-H650
relative viability (Irinotecan + Trametinib; first compound 0.6325 µM): 0.733
relative viability (Irinotecan + Trametinib; first compound 2 µM): 0.308
relative viability (Irinotecan + Trametinib; first compound 6.325 µM): 0.173
relative viability (Irinotecan + Trametinib; first compound 20 µM): 0.206
relative viability (Irinotecan + Olaparib; first compound 0.6325 µM): 0.181
relative viability (Irinotecan + Olaparib; first compound 2 µM): 0.199
relative viability (Irinotecan + Olaparib; first compound 6.325 µM): 0.185
relative viability (Irinotecan + Olaparib; first compound 20 µM): 0.198
relative viability (RU-SKI 43 + Alpelisib; first compound 0.1 µM): 1.14
relative viability (RU-SKI 43 + Alpelisib; first compound 0.3162 µM): 0.981
relative viability (RU-SKI 43 + Alpelisib; first compound 1 µM): 1.12
relative viability (RU-SKI 43 + Alpelisib; first compound 10 µM): 1.07
relative viability (MK-8033 + Lapatinib; first compound 0.02 µM): 0.759
relative viability (MK-8033 + Lapatinib; first compound 0.06325 µM): 0.966
relative viability (MK-8033 + Lapatinib; first compound 0.2 µM): 0.838
relative viability (MK-8033 + Lapatinib; first compound 0.6325 µM): 0.845
relative viability (MK-8033 + Lapatinib; first compound 2 µM): 0.921

NCI-H661
relative viability (Irinotecan + Trametinib; first compound 0.6325 µM): 0.464
relative viability (Irinotecan + Trametinib; first compound 2 µM): 0.524
relative viability (Irinotecan + Trametinib; first compound 6.325 µM): 0.535
relative viability (Irinotecan + Trametinib; first compound 20 µM): 0.209
relative viability (Irinotecan + Olaparib; first compound 0.6325 µM): 0.583
relative viability (Irinotecan + Olaparib; first compound 2 µM): 0.556
relative viability (Irinotecan + Olaparib; first compound 6.325 µM): 0.396
relative viability (Irinotecan + Olaparib; first compound 20 µM): 0.233
relative viability (RU-SKI 43 + Alpelisib; first compound 0.1 µM): 0.647
relative viability (RU-SKI 43 + Alpelisib; first compound 0.3162 µM): 0.668
relative viability (RU-SKI 43 + Alpelisib; first compound 1 µM): 0.846
relative viability (RU-SKI 43 + Alpelisib; first compound 3.162 µM): 0.464
relative viability (RU-SKI 43 + Alpelisib; first compound 10 µM): 0.404
relative viability (MK-8033 + Lapatinib; first compound 0.02 µM): 0.384
relative viability (MK-8033 + Lapatinib; first compound 0.06325 µM): 0.417
relative viability (MK-8033 + Lapatinib; first compound 0.2 µM): 0.482
relative viability (MK-8033 + Lapatinib; first compound 0.6325 µM): 0.453
relative viability (MK-8033 + Lapatinib; first compound 2 µM): 0.438

NCI-H727
relative viability (Irinotecan + Trametinib; first compound 0.6325 µM): 0.373
relative viability (Irinotecan + Trametinib; first compound 2 µM): 0.336
relative viability (Irinotecan + Trametinib; first compound 6.325 µM): 0.382
relative viability (Irinotecan + Trametinib; first compound 20 µM): 0.346
relative viability (Irinotecan + Olaparib; first compound 0.6325 µM): 0.723
relative viability (Irinotecan + Olaparib; first compound 2 µM): 0.454
relative viability (Irinotecan + Olaparib; first compound 6.325 µM): 0.66
relative viability (Irinotecan + Olaparib; first compound 20 µM): 0.656
relative viability (RU-SKI 43 + Alpelisib; first compound 0.1 µM): 0.571
relative viability (RU-SKI 43 + Alpelisib; first compound 0.3162 µM): 0.477
relative viability (RU-SKI 43 + Alpelisib; first compound 1 µM): 0.729
relative viability (RU-SKI 43 + Alpelisib; first compound 3.162 µM): 0.249
relative viability (RU-SKI 43 + Alpelisib; first compound 10 µM): 0.479
relative viability (MK-8033 + Lapatinib; first compound 0.02 µM): 0.759
relative viability (MK-8033 + Lapatinib; first compound 0.06325 µM): 0.72
relative viability (MK-8033 + Lapatinib; first compound 0.2 µM): 0.665
relative viability (MK-8033 + Lapatinib; first compound 0.6325 µM): 0.748
relative viability (MK-8033 + Lapatinib; first compound 2 µM): 0.858

NCI-H838
relative viability (Irinotecan + Trametinib; first compound 0.6325 µM): 0.672
relative viability (Irinotecan + Trametinib; first compound 2 µM): 0.647
relative viability (Irinotecan + Trametinib; first compound 6.325 µM): 0.319
relative viability (Irinotecan + Trametinib; first compound 20 µM): 0.171
relative viability (Irinotecan + Olaparib; first compound 0.6325 µM): 0.632
relative viability (Irinotecan + Olaparib; first compound 2 µM): 0.441
relative viability (Irinotecan + Olaparib; first compound 6.325 µM): 0.238
relative viability (Irinotecan + Olaparib; first compound 20 µM): 0.18
relative viability (RU-SKI 43 + Alpelisib; first compound 0.1 µM): 0.975
relative viability (RU-SKI 43 + Alpelisib; first compound 0.3162 µM): 0.969
relative viability (RU-SKI 43 + Alpelisib; first compound 1 µM): 0.966
relative viability (RU-SKI 43 + Alpelisib; first compound 3.162 µM): 0.93
relative viability (RU-SKI 43 + Alpelisib; first compound 10 µM): 1.02
relative viability (MK-8033 + Lapatinib; first compound 0.02 µM): 0.902
relative viability (MK-8033 + Lapatinib; first compound 0.06325 µM): 0.844
relative viability (MK-8033 + Lapatinib; first compound 0.2 µM): 0.925
relative viability (MK-8033 + Lapatinib; first compound 0.6325 µM): 0.927
relative viability (MK-8033 + Lapatinib; first compound 2 µM): 0.911
